Measured values: US10583131B2, “Methods of treating pancreatic cancer” (ChemoCentryx, Inc., priority 2016, dated 2020)

Legend:
[1] = Pharmacokinetics in Sprague-Dawley rats (i.v. and oral); type: in vivo; conditions: for clearance / bioavailability / AUC: rat, plasma; for clearance: iv, 0.5 mg/kg; for bioavailability: po 2 mg/kg, iv 0.5 mg/kg; for AUC: po, 2 mg/kg
Experimental: Compound Ib and PF-04136309 were dosed intravenously at 0.5 mg/kg and orally at 2 mg/kg, in aqueous hydroxypropyl methylcellulose. Blood samples were collected at predetermined time points after each dosing and the corresponding plasma concentrations of Compound Ib and PF-04136309 were analyzed using an LC-MS/MS method. Plasma concentration-time curves were constructed and the corresponding pharmacokinetic parameters were derived using non-compartmental analysis.
Blood (0.2 mL) was sampled through the jugular vein or cardiac puncture (for terminal point only) at pre-dose, 2, 5, 10, 15, and 30 min, 1, 2, 4, 6, and 8 hours post-dose for i.v. dosing and at pre-dose, 5, 15, and 30 min, 1, 1.5, 2, 4, 6, and 8 hours post-dose for oral dosing. Blood samples were collected into chilled polypropylene tubes containing sodium EDTA as the anticoagulant and plasma was collected through centrifugation (Eppendorf Centrifuge 5417R) at 10,000 rpm and 4° C. for 6 minutes and stored at −20° C. until analysis.
(§1) Plasma samples (50 μL) were extracted with 200 μL acetonitrile containing the internal standard on a linear shaker for 10 min and then centrifuged at 3700 g for 10 min at 4° C. (Allegra X-15R centrifuge, Beckman Coulter, Inc., Fullerton, Calif.). 100 μL of the resulting supernatant was transferred into a new plate and mixed with 100 μL 0.1% formic acid in water for LC-MS/MS analysis.
(§2) Calibration standard samples were prepared with blank Sprague-Dawley rat plasma, at 5000, 2500, 1000, 500, 100, 50, 20, 10, 4, 2 and 1 ng/mL of compound. Three levels of the standard stock solutions (1000, 100 and 10 ng/mL) were spiked separately into male Sprague-Dawley rat plasma and used as QC samples. Plasma standards and QC samples were treated identically and prepared in parallel with the plasma samples. Extracted samples were analyzed by LC-MS/MS.
Mass spectrometer acquisition and integration were performed with Applied Biosystems-Sciex Analyst software (version 1.4.2). The calibration curve was obtained through a quadratic regression and the calibration range was 2-5000 ng/mL.
(§3) Instrument: • API 3000 mass spectrometer (Applied Biosystems, Foster City, Calif.) • Agilent 1100 HPLC binary pump (Santa Clara, Calif.) • LEAP Technologies HTS Pal Autosampler (Carrboro, N.C.) • Thermo Scientific Cohesive Aria LX-2 duplexing system (Waltham, Mass.) Column: Zorbax Eclipse XDB Phenyl 2.1×50 mm (Agilent, Santa Clara, Calif.) Injection Volume: 10 μL Flow Rate: 0.60 mL/min
Ionization Mode: Electrospray (ESI). Detection Mode: Positive MRM. For each dosing route, descriptive pharmacokinetic parameters were determined by a standard non-compartmental analysis (Wagner, 1993) from the plasma concentration-time curve. Pharmacokinetic analysis was performed by using XLFit® v.4.3.1 (ID Business Solutions Inc., Alameda, Calif.) in conjunction with Microsoft Excel 2003.

[2] = Pharmacokinetics of compound Ib in male beagle dogs (i.v. and oral); type: in vivo; conditions: Dog
Experimental: The pharmacokinetic profile of compound Ib was evaluated in male beagle dogs following intravenous (i.v.) and oral (p.o.) administration. A single dose of compound Ib was dosed intravenously at 0.5 mg/kg and orally at 2 mg/kg. Blood samples were collected at predetermined time points after each dosing and the corresponding plasma samples were analyzed using an LC-MS/MS method. Plasma concentration-time curves were constructed using the plasma concentrations and the corresponding pharmacokinetic parameters were derived by non-compartmental analysis.
Six animals weighing 11.5, 9.9, 9.9, 14.6, 11.1, and 9.8 kg, respectively, were used with Compound Ib dosed intravenously at 0.5 mg/kg (the first 3 animals) and orally at 2 mg/kg (the second 3 animals).
For i.v. dosing, a solution formulation of Compound Ib was prepared in 36.8% water/31.6% propylene glycol/31.6% N,N-dimethyl acetamide at 0.5 mg/mL and each animal received 1 mL/kg. For oral dosing at 2 mg/kg, a solution formulation was prepared in 1% hydroxypropyl methylcellulose at 0.5 mg/mL and each animal received 4 mL/kg.
For dosing, blood (˜1 mL) was drawn at pre-dose and at 5, 15, and 30 min, 1, 2, 4, 8, 12, and 24 hours post-dose. Blood was sampled from the foreleg vein via butterfly catheter and then placed into chilled polypropylene tubes containing K2EDTA as the anticoagulant and kept on ice until centrifugation. Plasma was collected through centrifugation and shipped on dry ice for sample analysis.
as §1, with “0.1% formic acid/acetonitrile” for “acetonitrile”
as §2, with “blank dog” for “blank Sprague-Dawley rat”, “of Compound Ib.” for “of compound.”, “male beagle dog” for “male Sprague-Dawley rat”, “samples.” for “samples. Extracted samples were analyzed by LC-MS/MS.”
Sample analysis was performed by LC-MS/MS (details shown below). Acquisition and peak integration were performed with the Applied Biosystems-Sciex Analyst software (version 1.4.2). Calibration curves were obtained through quadratic regression with a weighting of 1/x. The calibration range was 1-5000 ng/mL.
as §3, with “Instrument: • Applied Biosystems API 3000” for “Instrument: • API 3000”, “mass spectrometer (Foster City, Calif.)” for “mass spectrometer (Applied Biosystems, Foster City, Calif.)”
Ionization Mode: Turbo Ionspray ESI Detection Mode: Positive MRM For each dosing route, descriptive pharmacokinetic parameters were determined by a standard non-compartmental analysis (Wagner, 1993) from the plasma concentration-time curve. • CL: Total body clearance • AUC: area under the curve • F: Bioavailability.
Pharmacokinetic analysis was performed by using XLFit® v.4.3.1 (ID Business Solutions Inc., Alameda, Calif.) in conjunction with Microsoft Excel 2003.

[3] = tested on: non-resectable pancreatic adenocarcinoma; test: Open-label Phase Ib clinical trial of compound Ib plus FOLFIRINOX, response by RECIST 1.1; type: in vivo, patients; conditions: for Tumor control rate: 12 weeks of treatment, 150 mg twice daily plus FOLFIRINOX; for Progressive disease / Stable disease / Overall response rate: 12 weeks, plus FOLFIRINOX; for Overall response rate: RECIST 1.1, all partial responses
Experimental: Fifty-four patients age 18 years or older were enrolled on an open-label phase 1-b interventional study to evaluate the safety and efficacy of compound Ib in patients with pancreatic adenocarcinoma also receiving FOLFIRINOX chemotherapy. Dosing consisted of 150 mg tablets for oral administration once or twice daily given orally for at least 12 weeks.
Inclusion criteria included: • Histologically or cytologically confirmed non-resectable pancreatic adenocarcinoma with or without metastases • Eastern Cooperative Oncology Group (ECOG) performance status score ≤2 • Anticipated life expectancy a ≥12 weeks • Radiographically measurable disease acc. to RECIST 1.1 • Use of adequate contraception (as described in protocol) • Ability to provide written informed consent and comply with study requirements.
Exclusion criteria included: • Received other cancer treatment or investigational drug within 4 weeks prior to screening • Women who are pregnant or breastfeeding • Had major surgery within 4 weeks of first dose of study drug • Inadequate liver, renal or bone marrow function within 2 weeks of first dose • Serious concurrent illness, altered medical status or any uncontrolled medical condition • Any infection requiring antibiotic or anti-viral treatment within 4 weeks of screening • Known active HIV, HBV or HCV infection • Inability to swallow tablets • History or presence of any medical condition or disease which, in the opinion of the investigator, may place the subject at unacceptable risk for study participation. Initial 12 week overall response rate (ORR) results:
The open-label, multi-center, Phase Ib clinical trial was designed to evaluate the safety and efficacy of orally administered compound Ib plus FOLFIRINOX in 50 patients with non-resectable pancreatic cancer. Patients received 150 mg of compound Ib twice daily for 12 weeks. After 12 weeks, patients who achieved stable disease or better (as measured by Response Evaluation Criteria In Solid Tumors, or RECIST 1.1), were eligible to continue on study for at least an additional 12 weeks unless disease progression occured. Per protocol, the Eastern Cooperative Oncology Group (ECOG) performance status of patients in the trial was 0, 1 or 2.
Patients enrolled in the study had advanced non-resectable pancreatic cancer (78% of patients having metastatic disease), and an Eastern Cooperative Oncology Group (ECOG) Performance Status score of less than or equal to 2. In order to assess the initial treatment effect of compound Ib, the study provided for assessment of overall response rate (ORR) based on computerized tomography (CT) imaging following 12 weeks of treatment.
The pre-specified evaluable ORR population consists of all patients who have at least one post-baseline disease CT assessment. Response rate results at 12 weeks of treatment were as follows: […]

[4] = male, beagle, plasma, po, mean, N = 3, dosed at 2 mg/kg
[5] = ITT Patient Population (N = 50)
[6] = Pre-Specified Evaluable Patient Population (N = 41)

Clearance compared to PF-4136309 [1]	Exposure (AUC) compared to PF-4136309 [1]	clearance [1] [L/h/kg]	bioavailability [1] [%]	AUC [1] [µg·h/mL]	Clearance compared to PF-4136309 ([2]; at comparable doses)	Exposure (AUC) compared to PF-4136309 ([2]; at comparable doses)	clearance ([2]; male, beagle, plasma, iv, mean, N = 3, dosed at 0.5 mg/kg) [L/h/kg]	AUC [2, 4] [µg·h/mL]	bioavailability [2, 4] [%]	SMILES	Tumor control rate [3, 5]	Tumor control rate ([3]; Pre-Specified Evaluable Patient Population (N = 41), includes stable disease, partial response and complete response)	Progressive disease [3, 5]	Stable disease [3, 5]	Progressive disease [3, 6]	Stable disease [3, 6]	Overall response rate [3, 5]	Overall response rate [3, 6]	Tolerability ([3]; advanced pancreatic cancer patients, combined with FOLFIRINOX)	Incidence and rate of adverse events ([3]; compound Ib combined with FOLFIRINOX, versus historical FOLFIRINOX alone)
much lower	much higher	0.69	133	3.91	much lower	much higher	0.042	67	143	Cc1cnc(C(=O)c2ccnc3[nH]ccc23)c(NS(=O)(=O)c2ccc(Cl)c(C(F)(F)F)c2)c1 [Compound Ib]	32/50 (64%)	32/41 (78%)	9/50 (18%)	17/50 (34%)	9/41 (22%)	17/41 (41%)	15/50 (30%)	15/41 (37%)	well tolerated	consistent with data reported historically for FOLFIRINOX alone
		4.27	22	0.111						O=C(NCC(=O)N1CC[C@H](N[C@H]2CC[C@@](O)(c3ccc(-c4ncccn4)cn3)CC2)C1)c1cccc(C(F)(F)F)c1 [PF-04136309, reference compound]										
